Measured values published in the supplement of paper PMC10307832.

Tests used:
Experiment in all cases: relative viability (nuclei count vs DMSO), 5 days (fraction); higher = more cells survive
NCI-H2023 = test system: NCI-H2023
Outline: (§1)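 After 5 days of treatment, lung cancer cells in 1536-well plates were fixed and stained in a single step (final 0.05% Triton X-100, 1% formaldehyde, 1 ug/ml Hoechst) and their nuclei counted on 4× images. Treatment had been applied by pin tool the day after seeding as one drug alone or as a fixed anchor-drug dose with five library-drug doses (not always all listed) in √10 steps. Relative viability is the nuclei count of treated wells divided by that of vehicle wells, and values are medians of duplicate plates.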

COR-L23 = test system: COR-L23
Outline: as §1

A-427 = test system: A-427
Outline: as §1

SK-MES-1 = test system: SK-MES-1
Outline: as §1

NCI-H1651 = test system: NCI-H1651
Outline: as §1

NCI-H1395 = test system: NCI-H1395
Outline: as §1

COR-L 105 = test system: COR-L 105
Outline: as §1

LCLC-103H = test system: LCLC-103H
Outline: as §1

NCI-H650 = test system: NCI-H650
Outline: as §1

CAL-12T = test system: CAL-12T
Outline: as §1

NCI-H2085 = test system: NCI-H2085
Outline: as §1

HOP-62 = test system: HOP-62
Outline: as §1

LXF-289 = test system: LXF-289
Outline: as §1

NCI-H1563 = test system: NCI-H1563
Outline: as §1

NCI-H1975 = test system: NCI-H1975
Outline: as §1

NCI-H596 = test system: NCI-H596
Outline: as §1

RERF-LC-KJ = test system: RERF-LC-KJ
Outline: as §1

NCI-H3122 = test system: NCI-H3122
Outline: as §1

NCI-H647 = test system: NCI-H647
Outline: as §1

NCI-H2087 = test system: NCI-H2087
Outline: as §1

COCC1(CO)C(=O)C2CCN1CC2 (centres undefined) [PRIMA-1MET] + C[C@]1(O)C[C@@H](c2nc(-c3ccc4ccc(-c5ccccc5)nc4c3)c3c(N)nccn32)C1 [Linsitinib] (partner 1 µM)
relative viability (NCI-H2023; first compound 0.2 µM): 0.784 | relative viability (NCI-H2023; first compound 0.6325 µM): 0.65 | relative viability (NCI-H2023; first compound 2 µM): 0.7 | relative viability (NCI-H2023; first compound 6.325 µM): 0.668 | relative viability (NCI-H2023; first compound 20 µM): 0.609 | relative viability (COR-L23; first compound 0.2 µM): 0.94 | relative viability (COR-L23; first compound 0.6325 µM): 0.942 | relative viability (COR-L23; first compound 2 µM): 0.978 | relative viability (COR-L23; first compound 6.325 µM): 0.873 | relative viability (COR-L23; first compound 20 µM): 0.0228 | relative viability (A-427; first compound 0.2 µM): 1.19 | relative viability (A-427; first compound 0.6325 µM): 0.703 | relative viability (A-427; first compound 2 µM): 0.953 | relative viability (A-427; first compound 6.325 µM): 1.12 | relative viability (A-427; first compound 20 µM): 1.08 | relative viability (SK-MES-1; first compound 0.2 µM): 1.13 | relative viability (SK-MES-1; first compound 0.6325 µM): 1.04 | relative viability (SK-MES-1; first compound 2 µM): 1.02 | relative viability (SK-MES-1; first compound 6.325 µM): 1.05 | relative viability (SK-MES-1; first compound 20 µM): 1.11 | relative viability (NCI-H1651; first compound 0.2 µM): 1.13 | relative viability (NCI-H1651; first compound 0.6325 µM): 0.981 | relative viability (NCI-H1651; first compound 2 µM): 0.907 | relative viability (NCI-H1651; first compound 6.325 µM): 0.955 | relative viability (NCI-H1651; first compound 20 µM): 0.839 | relative viability (NCI-H1395; first compound 0.2 µM): 1.1 | relative viability (NCI-H1395; first compound 0.6325 µM): 0.909 | relative viability (NCI-H1395; first compound 2 µM): 0.958 | relative viability (NCI-H1395; first compound 6.325 µM): 1.61 | relative viability (NCI-H1395; first compound 20 µM): 0.859 | relative viability (COR-L 105; first compound 0.2 µM): 0.943 | relative viability (COR-L 105; first compound 0.6325 µM): 0.815 | relative viability (COR-L 105; first compound 2 µM): 0.823 | relative viability (COR-L 105; first compound 6.325 µM): 0.859 | relative viability (COR-L 105; first compound 20 µM): 0.168 | relative viability (LCLC-103H; first compound 0.2 µM): 1.24 | relative viability (LCLC-103H; first compound 0.6325 µM): 0.956 | relative viability (LCLC-103H; first compound 2 µM): 0.905 | relative viability (LCLC-103H; first compound 6.325 µM): 1.12 | relative viability (LCLC-103H; first compound 20 µM): 1.1 | relative viability (NCI-H650; first compound 0.2 µM): 1.13 | relative viability (NCI-H650; first compound 2 µM): 0.859 | relative viability (NCI-H650; first compound 6.325 µM): 0.674 | relative viability (NCI-H650; first compound 20 µM): 0.107 | relative viability (CAL-12T; first compound 0.2 µM): 0.725 | relative viability (CAL-12T; first compound 0.6325 µM): 0.733 | relative viability (CAL-12T; first compound 2 µM): 0.745 | relative viability (CAL-12T; first compound 6.325 µM): 0.85 | relative viability (CAL-12T; first compound 20 µM): 0.543 | relative viability (NCI-H2085; first compound 0.2 µM): 1 | relative viability (NCI-H2085; first compound 0.6325 µM): 0.826 | relative viability (NCI-H2085; first compound 2 µM): 0.866 | relative viability (NCI-H2085; first compound 6.325 µM): 0.731 | relative viability (NCI-H2085; first compound 20 µM): 0.287 | relative viability (HOP-62; first compound 0.2 µM): 1.08 | relative viability (HOP-62; first compound 0.6325 µM): 0.976 | relative viability (HOP-62; first compound 2 µM): 0.9 | relative viability (HOP-62; first compound 6.325 µM): 0.987 | relative viability (HOP-62; first compound 20 µM): 0.746 | relative viability (LXF-289; first compound 0.2 µM): 1.02 | relative viability (LXF-289; first compound 0.6325 µM): 0.958 | relative viability (LXF-289; first compound 2 µM): 1.04 | relative viability (LXF-289; first compound 6.325 µM): 0.999 | relative viability (LXF-289; first compound 20 µM): 0.89 | relative viability (NCI-H1563; first compound 0.2 µM): 1.25 | relative viability (NCI-H1563; first compound 0.6325 µM): 1.14 | relative viability (NCI-H1563; first compound 2 µM): 1.15 | relative viability (NCI-H1563; first compound 6.325 µM): 1.23 | relative viability (NCI-H1563; first compound 20 µM): 0.368 | relative viability (NCI-H1975; first compound 0.2 µM): 1.14 | relative viability (NCI-H1975; first compound 0.6325 µM): 0.838 | relative viability (NCI-H1975; first compound 2 µM): 0.875 | relative viability (NCI-H1975; first compound 6.325 µM): 1 | relative viability (NCI-H1975; first compound 20 µM): 0.826 | relative viability (NCI-H596; first compound 0.2 µM): 1.29 | relative viability (NCI-H596; first compound 0.6325 µM): 0.894 | relative viability (NCI-H596; first compound 2 µM): 0.972 | relative viability (NCI-H596; first compound 6.325 µM): 1.09 | relative viability (NCI-H596; first compound 20 µM): 1.14 | relative viability (RERF-LC-KJ; first compound 0.2 µM): 0.961 | relative viability (RERF-LC-KJ; first compound 0.6325 µM): 0.955 | relative viability (RERF-LC-KJ; first compound 2 µM): 0.832 | relative viability (RERF-LC-KJ; first compound 6.325 µM): 0.922 | relative viability (RERF-LC-KJ; first compound 20 µM): 0.875 | relative viability (NCI-H3122; first compound 0.2 µM): 0.853 | relative viability (NCI-H3122; first compound 0.6325 µM): 0.996 | relative viability (NCI-H3122; first compound 2 µM): 1.04 | relative viability (NCI-H3122; first compound 6.325 µM): 0.945 | relative viability (NCI-H3122; first compound 20 µM): 1.03 | relative viability (NCI-H647; first compound 0.2 µM): 1.42 | relative viability (NCI-H647; first compound 0.6325 µM): 1.16 | relative viability (NCI-H647; first compound 2 µM): 1.18 | relative viability (NCI-H647; first compound 6.325 µM): 1.42 | relative viability (NCI-H647; first compound 20 µM): 1.18 | relative viability (NCI-H2087; first compound 0.2 µM): 1.07 | relative viability (NCI-H2087; first compound 0.6325 µM): 0.85 | relative viability (NCI-H2087; first compound 2 µM): 0.875 | relative viability (NCI-H2087; first compound 6.325 µM): 1.24 | relative viability (NCI-H2087; first compound 20 µM): 0.691
